In publication PMC6960228, “Ethoxysanguinarine, a Novel Direct Activator of AMP-Activated Protein Kinase, Induces Autophagy and Exhibits Therapeutic Potential in Breast Cancer Cells” (Frontiers in Pharmacology, 2020):

System: MCF-7 xenografted and MDA-MB-231 xenografted murine models
Assay: Xenograft studies
Assay type: in vivo, nude mice
Description: Female nude immunodeficient mice (nu/nu) (weighing ~16 g, 5-week-old) were purchased from Hunan SJA Laboratory Animal Co., Ltd. (Changsha, China), and maintained under specific pathogen-free conditions. Mice were given free access to sterile water and to a standard diet, and maintained under controlled conditions of temperature (22–24°C), humidity (40–70%), and light (12 h light-dark cycles). The present study was approved by Animal Ethics Committee of Hubei University of Medicine. The mice were subcutaneously injected with human BC MDA-MB-231 cells (5 × 10^6 cells which were suspended in 100 μL DMEM) into the right flank of each mouse. Treatments started when tumors reached a palpable size (0.5 cm in diameter). Mice were randomly divided into the following two groups: control group (vehicle; 0.8% DMSO, 12% cremophor, and 8% ethanol in normal saline; n = 8) and Eth-treated group (intraperitoneal injection of […] Eth; n = 8). The mice were treated 5 times per week for a total of […]. Caliper measurements of the longest perpendicular tumor diameters were performed twice a week to estimate the tumor volume, using the following formula: 4π/3 × (width/2)^2 × (length/2), representing the three-dimensional volume of an ellipse. Animals were sacrificed when tumors reached 1.5 cm or if the mice appeared moribund to prevent unnecessary morbidity to the mice.
To determine the anti-tumor effect of Eth on BC in vivo, MCF-7 xenografted and MDA-MB-231 xenografted murine models were generated. Once the tumors grew to a measurable size, each group was administered with vehicle (MCF-7 = 8, MDA-MB-231 = 8) or Eth (MCF-7 = 8; MDA-MB-231 = 8) i.p. at 2 mg/kg four times a week for 4 weeks. The tumor-bearing mice were humanely killed when their tumors reached 1.5 cm in diameter or when paralysis or major compromise in their quality of life occurred. […]
(A–B): Murine models were treated with vehicle, Eth (2 mg/kg) and the tumor volumes were calculated twice a week. **P < 0.01. […] (H–I): The expressions of LC3-II, AMPKα, and pAMPKα in xenograft tumor tissues were analyzed by western blot. […]

CCOC1c2c(ccc3c2OCO3)-c2ccc3cc4c(cc3c2N1C)OCO4 (stereo not drawn) [Eth, Ethoxysanguinarine]
tumor weight (i.p. 2 mg/kg four times a week for 4 weeks): significantly reduced the tumor weight | tumor growth compared with vehicle control (i.p. 2 mg/kg four times a week for 4 weeks, P < 0.05): efficiently repressed tumor growth | expression levels of pAMPK and LC-3II in tumor specimens (western blot of xenograft tumors): upregulated
